From patent US9103790B2, “Linker for unimolecular FRET biosensor based on principle of fluorescence resonance energy transfer” (KYOTO UNIVERSITY, priority 2010, dated 2015)

Columns and labels:
[1] = test system: EGF dependent-activation of ERK; assay: Drug sensitivity test: FRET measurement of ERK activity in cell line stably expressing Eevee-ERK (3560 NES); assay type: cell-based, human; details: HeLa cells stably expressing Eevee-ERK (3560 NES); serial-diluted inhibitors; 25 ng/mL EGF; after 30 min; average of 30 or more cells
Method: FIG. 18A illustrates results when HeLa cells stably expressing Eevee-ERK were seeded onto a 96-well plate, were added thereto serial-diluted inhibitors and stimulated with 25 ng/mL EGF. ERK activities were automatically measured for 30 or more cells, averaged, and plotted. FIG. 18A illustrates results of DMSO controls.
A mammalian cell expression plasmid containing the gene of Eevee-ERK (3560 NES) described in Example 3 was inserted into a plasmid having a transposon recognition sequence. This plasmid and a transposon expression vector was co-transfected as previously reported and screened for biosensor-expressing cell lines by blasticidin [Yusa, K., R. Rad, J. Takeda, and A. Bradley. 2009. Generation of transgene-free induced pluripotent mouse stem cells by the piggyBac transposon. Nat. Methods 6 (5)363-369].
Cultured cell lines were seeded onto a 96-well culture plate. Serial-diluted inhibitors were added thereto. The cell lines were stimulated with 25 ng/mL EGF. After 30 min, ERK activities were measured as described in Example 3 (see FIGS. 18A to 18H). The average ERK activities of 30 or more cells were plotted. The following inhibitors were used: EGF receptor inhibitors (AG1478), MEK inhibitors (PD15035, PD184351), BRAF inhibitors (PLX4720), phosphatidylinositol 3-phosphate kinase inhibitors (LY294002), RSK inhibitors (BI-D1870) and JNK inhibitors (JNK inhibitor VIII).

[2] = test system: PKA; assay: Drug sensitivity test with transgenic mouse expressing Eevee-PKA (3536 NES), two-photon FRET imaging of small intestine; assay type: in vivo; details: intravenous injection; intermuscular nerve cell, intestinal smooth muscle, vascular smooth muscle
Excerpt: FIG. 19 illustrates results when the transgenic mouse expressing Eevee-PKA (3536 NES) was intravenously injected with theophylline, which is a phosphodiesterase inhibitor, and actosin, which is a cyclic adenosine triphosphate analog, and measured for PKA activities.
The transgenic mouse expressing Eevee-PKA (3536 NES) generated in Example 10 was anesthetized with isoflurane. A small intestine of the mouse was time-lapse imaged by an inverted two-photon microscope IX81/FV1000 (product of Olympus Corporation). Cells were excited at 840 nm with a titanium-sapphire laser system (Mai Tai Deep See HP; product of Spectra-Physics, Inc.). CFP fluorescence and YFP fluorescence were acquired using BA 460-500 fluorescence filter (product of Olympus Corporation) and BA 520-560 fluorescence filter (product of Olympus Corporation), respectively. FRET images were obtained in the same manner as in Example 3.
The transgenic mouse was intravenously injected with theophylline, which is a phosphodiesterase inhibitor, and actosin, which is a cyclic adenosine triphosphate analog, and measured for PKA activities.

| Compound | inhibition of EGF dependent-activation of ERK [1] | PKA activities (FRET) [2] |
| --- | --- | --- |
| O=C(NOCC1CC1)c1ccc(F)c(F)c1Nc1ccc(I)cc1Cl [PD184352] | effectively inhibited |  |
| COc1cc2ncnc(Nc3cccc(Br)c3)c2cc1OC [PD153035] | effectively inhibited |  |
| CCCC(=O)Nc1ncnc2c1ncn2[C@@H]1O[C@@H]2COP(=O)([O-])O[C@H]2[C@H]1OC(=O)CCC.[Na+] [actosin] |  | Changes in PKA activities |
| Cn1c(=O)c2[nH]cnc2n(C)c1=O [theophylline] |  | Changes in PKA activities |
| COc1cc2ncnc(Nc3cccc(Cl)c3)c2cc1OC [AG1478] | effectively inhibited |  |
